Experimental data: patent US20120020923A1, “Method of treating viral diseases with combinations of TPO receptor agonist and anti-viral agents” (priority 2006, published 2012)

Tested on: subjects with chronic hepatitis C virus (HCV) associated thrombocytopenia
Assay: placebo controlled, double blind, dose-ranging study of Compound A before and with IFN and ribavirin
Type: in vivo, human
Details: for Median platelet count at Week 4: 4 weeks
Experimental: The safety, tolerability, efficacy and pharmacokinetics of repeat oral daily doses of 3′-{N′-[1-(3,4-Dimethylphenyl)-3-methyl-5-oxo-1,5-dihydropyrazol-4-ylidene]hydrazino}-2′-hydroxybiphenyl-3-carboxylic acid bis-(monoethanolamine);
(hereinafter Compound A) in subjects with chronic hepatitis C virus (HCV) associated thrombocytopenia, which precluded initiation of treatment with pegylated interferon (IFN) and ribavirin is assessed in this study.
HCV infected subjects with compensated cirrhosis and platelet counts between 20-70,000/ul were randomly allocated to 1 of 4 treatment groups (30, 50, 75 mg eltrombopag or placebo). During Part 1, Compound A was administered in tablet form once daily for 4 weeks. Subjects who achieved platelet counts of >70,000/ul at the end of Part 1 were eligible to enter Part 2, during which subjects initiated therapy with IFN and ribavirin and continued their randomized treatment for a maximum of 12 weeks. A follow-up visit was performed 4 weeks after last dose of study drug. The primary endpoint was defined as an increase in platelet count to 100,000/ul at Week 4.

[1] = range over the Compound A groups (30, 50, 75 mg)

## CC1=NN(c2ccc(C)c(C)c2)C(=O)C1=NNc1cccc(-c2cccc(C(=O)O)c2)c1O [Compound A, 3′-{N′-[1-(3,4-Dimethylphenyl)-3-methyl-5-oxo-1,5-dihydropyrazol-4-ylidene]hydrazino}-2′-hydroxybiphenyl-3-carboxylic acid bis-(monoethanolamine)]
30 mg once daily oral
  Median platelet count at Week 4: 136500 µL⁻¹
50 mg once daily oral
  Median platelet count at Week 4: 213500 µL⁻¹
75 mg once daily oral
  Median platelet count at Week 4: 209000 µL⁻¹
All treatment groups (30, 50, 75 mg)
  platelet counts at Day 28: increased platelet counts
[1]
  subjects completing 12 weeks of antiviral therapy: 36-65%
  subjects who completed 12 weeks of antiviral therapy: 5-15 subjects
